Results: US20100056519A1, “COMPOSITION AND METHOD FOR REDUCING PLATELET ACTIVATION AND FOR THE TREATMENT OF THROMBOTIC EVENTS” (priority 2008, published 2010)
Marks after values point to notes of the source that are not given here.

Assays:
Assay type in all cases: cell-based, human
[1] = tested on: platelets; assay: Platelet Function Analyzer PFA-100, ADP/Collagen cartridge; details: for Closure time (s): recording limit 300 s
Description: (§1) The methodology employed was conventional aggregation induced by 5 μM ADP, 1 μg/ml collagen, 10 μM TRAP, whole blood aggregation with 1 μg/ml collagen, Ultegra, and PFA-100 Analyzers, expression of 14 intact, and TRAP-stimulated major receptors by whole blood flow cytometry were utilized to assess platelet activity after preincubation with escalating concentrations of E5555 (20 ng/ml, 50 ng/ml, and 100 ng/ml). The experiments were performed in healthy volunteers, CAD patients treated with ASA, and CAD patients treated with ASA and clopidogrel combination (n=10, for each group).
(§2) An Informed Consent was obtained from all volunteers. Drug users were excluded from data analysis. The study was approved by Quorum Institutional Review Board. All subjects underwent blood sampling after at least 30 minutes of rest and two or more hours of fasting. Blood (28 ml) was drawn between 8 and 10 a.m. in order to avoid any diurnal influence and sampled from an antecubital vein using a 21-gauge butterfly needle containing 3.2% sodium citrate (1:9 volume) after having discarded the first 1.5 ml of free running blood. Four Vacutainer tubes (7.0 ml) were collected for a total of 28 ml of whole blood-citrate mixture from each study participant. Chronologically, blood samples were delivered to the core laboratory facility within 45 minutes after drawing. Then all tubes of blood-citrate mixture were pooled. One portion of pooled blood (5 ml) was kept as an internal control and pretreated with the vehicle. The remaining blood (23 ml) was used for the in vitro exposure to E5555 at concentrations of 20 ng/ml, 50 ng/ml, and 100 ng/ml. […] The platelet aggregation studies, Rapid Analyzers measures, and flow cytometry preparations were initiated within no more than 110 minutes following the blood draw, incubation with the drug, and preparation of the samples.
Whole blood aggregation was determined using a Chronolog device 592A. The whole blood-citrate mixture was diluted 1:1 with 0.5 ml phosphate buffered saline and gently swirled. The sample then was allowed to warm to 37° C. for 5 minutes then transferred to the assay well. The electrode was then placed in the cuvette and the sample was stimulated with 1 μg/ml collagen. The change in electrical impedance was digitally recorded. Each whole blood sample was analyzed utilizing 2 different clinical devices: • (1) a Rapid Platelet-Function Assay (Ultegra®) (Accumetrics, Inc., San Diego, Calif.), which is a rapid platelet-function assay aspirin cartridge test with TRAP used as agonist. Polystyrene beads coated with fibrinogen are placed in a cartridge along with the peptide that activates thrombin receptor. Anticoagulated whole blood was added to the cartridge, and agglutination between platelets and coated beads was recorded. The data mirrors turbidimetric platelet aggregation and presumably reflects platelet glycoprotein IIb/IIIa blockade. Ultegra RPFA-TRAP Assay results were reported as Platelet Activation Units (PAU); and • (2) Platelet-Function Analyzer PFA-100 ™ (Dade Behring, Deerfield Ill.), which is a high shear-inducing analyzer that simulates primary hemostasis after injury to a small vessel under flow conditions. The device provides a constant negative pressure that aspirates whole blood, which comes into contact with the collagen, coated membrane and then passes through the aperture. The time required to obtain occlusion of the aperture is digitally recorded. The time to aperture occlusion (the closure time) is recorded in seconds and is inversely related to the degree of shear-induced platelet activation. We used ADP/Collagen cartridges in the index study. Both PFA-100 and Ultegra assays were performed in duplicate. An electronic quality control test was performed on each instrument daily prior to performing any patient samples.

[2] = tested on: PAC-1 (GPIIb/IIIa); assay: Unstimulated whole blood flow cytometry, PAC-1; details: for PAC-1 (GPIIb/IIIa), Mean Fluorescence Intensity: unstimulated, Mean ± SD
Description: as §1, §2
(§3) Formation of platelet-leukocyte aggregates was assessed by dual labeling with pan-platelet marker (CD151), and then with CD14, the macrophage receptor for endotoxin lipopolysaccharides (PharMingen, and Coulter, San Diego, Calif., USA). The tubes were then covered with aluminum foil and incubated at 37° C. for 40 minutes with gentle rotation. After incubation, samples were immediately analyzed on a Becton Dickinson FACScan flow cytometer. The instrument was set up to measure forward light scatter, and FITC fluorescence. All parameters were collected using four-decade logarithmic amplification. The data was retrieved in list mode files and then analyzed. P selectin was expressed as percent positive cells. Other antigens were expressed as log mean fluorescence intensity.

[3] = tested on: SPAN-12; assay: Unstimulated whole blood flow cytometry, SPAN-12; details: Mean ± SD
Description: as §1, §2, §3

[4] = tested on: P-selectin (CD62p); assay: TRAP-stimulated whole blood flow cytometry, P-selectin; details: Mean ± SD
Description: as §1, §2, §3
(§4) For flow cytometry (TRAP-stimulated) all of the above flow cytometry experiments were identically repeated utilizing prestimulation with 10 μmol/L TRAP for 5 minutes at 37° C. To determine statistics, a Paired Sign Test was used to define significance of differences between vehicle and E5555-treated groups. The Mann-Whitney U test was used to analyze nonparametric data. Normally distributed data were expressed as mean±standard error (m±SE), and skewed data as median (range). All P-values were two sided. All analysis was performed using the SPSS v9.0 program (SPSS Inc., Chicago, Ill.).

[5] = tested on: SPAN-12; assay: TRAP-stimulated whole blood flow cytometry, SPAN-12; details: Mean ± SD
Description: as §1, §2, §3, §4

[6] = E5555 20 ng/ml, Patients (ASA + C)
[7] = E5555 50 ng/ml, Patients (ASA + C)
[8] = E5555 100 ng/ml, Patients (ASA + C)
[9] = E5555 100 ng/ml, Patients (ASA)

SMILES: Br.CCOc1cc2c(c(F)c1OCC)C(=N)N(CC(=O)c1cc(N3CCOCC3)c(OC)c(C(C)(C)C)c1)C2 [E5555, 1-(3-tert-butyl-4-methoxy-5-morpholinophenyl)-2-(5,6-diethoxy-7-fluoro-1-imino-1,3-dihydro-2H-isoindol-2-yl)ethanone hydrobromide]
- Closure time (s) [1, 6]: >300*† s
- Closure time (s) ([1]; E5555 20 ng/ml, Patients (ASA)): >300*† s
- Closure time (s) ([1]; E5555 20 ng/ml, Volunteers): >300*† s
- Closure time (s) [1, 7]: >300*† s
- Closure time (s) ([1]; E5555 50 ng/ml, Patients (ASA)): >300*† s
- Closure time (s) ([1]; E5555 50 ng/ml, Volunteers): >300*† s
- Closure time (s) [1, 8]: >300*† s
- Closure time (s) [1, 9]: >300*† s
- Closure time (s) ([1]; E5555 100 ng/ml, Volunteers): >300*† s
- Platelet Analyzer readings, shear-induced activation, effect in words ([1]; overall summary): reduced shear-induced activation
- GP IIb/IIIa activity with PAC-1, effect in words ([2]; overall summary, stimulation not stated): significant reduction
- PAC-1 (GPIIb/IIIa), Mean Fluorescence Intensity [2, 6]: 5.9 ± 0.8 MFI
- PAC-1 (GPIIb/IIIa), Mean Fluorescence Intensity ([2]; E5555 20 ng/ml, Patients (ASA)): 10.4 ± 1.2 MFI
- PAC-1 (GPIIb/IIIa), Mean Fluorescence Intensity ([2]; E5555 20 ng/ml, Volunteers): 10.7 ± 1.3 MFI
- PAC-1 (GPIIb/IIIa), Mean Fluorescence Intensity [2, 7]: 6.2 ± 1.0 MFI
- PAC-1 (GPIIb/IIIa), Mean Fluorescence Intensity ([2]; E5555 50 ng/ml, Patients (ASA)): 10.1 ± 2.0 MFI
- PAC-1 (GPIIb/IIIa), Mean Fluorescence Intensity ([2]; E5555 50 ng/ml, Volunteers): 9.2 ± 1.5 MFI
- PAC-1 (GPIIb/IIIa), Mean Fluorescence Intensity [2, 8]: 6.3 ± 0.7 MFI
- PAC-1 (GPIIb/IIIa), Mean Fluorescence Intensity [2, 9]: 11.7 ± 2.1 MFI
- PAC-1 (GPIIb/IIIa), Mean Fluorescence Intensity ([2]; E5555 100 ng/ml, Volunteers): 9.9 ± 2.0 MFI
- SPAN-12, Mean Fluorescence Intensity [3, 6]: 11 ± 4 MFI
- SPAN-12, Mean Fluorescence Intensity ([3]; E5555 20 ng/ml, Patients (ASA)): 14 ± 3 MFI
- SPAN-12, Mean Fluorescence Intensity ([3]; E5555 20 ng/ml, Volunteers): 19 ± 4 MFI
- SPAN-12, Mean Fluorescence Intensity [3, 7]: 10 ± 6 MFI
- SPAN-12, Mean Fluorescence Intensity ([3]; E5555 50 ng/ml, Patients (ASA)): 11 ± 5 MFI
- SPAN-12, Mean Fluorescence Intensity ([3]; E5555 50 ng/ml, Volunteers): 19 ± 6 MFI
- SPAN-12, Mean Fluorescence Intensity [3, 8]: 12 ± 7 MFI
- SPAN-12, Mean Fluorescence Intensity [3, 9]: 13 ± 5 MFI
- SPAN-12, Mean Fluorescence Intensity ([3]; E5555 100 ng/ml, Volunteers): 18 ± 6 MFI
- P-selectin (CD62p), % positive cells [4, 6]: 11 ± 5 % positive cells
- P-selectin (CD62p), % positive cells ([4]; E5555 20 ng/ml, Patients (ASA)): 22 ± 6 % positive cells
- P-selectin (CD62p), % positive cells ([4]; E5555 20 ng/ml, Volunteers): 31 ± 8 % positive cells
- P-selectin (CD62p), % positive cells [4, 7]: 8 ± 3 % positive cells
- P-selectin (CD62p), % positive cells ([4]; E5555 50 ng/ml, Patients (ASA)): 15 ± 4 % positive cells
- P-selectin (CD62p), % positive cells ([4]; E5555 50 ng/ml, Volunteers): 14 ± 3 % positive cells
- P-selectin (CD62p), % positive cells [4, 8]: 3 ± 1 % positive cells
- P-selectin (CD62p), % positive cells [4, 9]: 8 ± 4 % positive cells
- P-selectin (CD62p), % positive cells ([4]; E5555 100 ng/ml, Volunteers): 11 ± 3 % positive cells
- SPAN-12, Mean Fluorescence Intensity [5, 6]: 9 ± 2 MFI
- SPAN-12, Mean Fluorescence Intensity ([5]; E5555 20 ng/ml, Patients (ASA)): 12 ± 4 MFI
- SPAN-12, Mean Fluorescence Intensity ([5]; E5555 20 ng/ml, Volunteers): 20 ± 3 MFI
- SPAN-12, Mean Fluorescence Intensity [5, 7]: 9 ± 3 MFI
- SPAN-12, Mean Fluorescence Intensity ([5]; E5555 50 ng/ml, Patients (ASA)): 9 ± 4 MFI
- SPAN-12, Mean Fluorescence Intensity ([5]; E5555 50 ng/ml, Volunteers): 17 ± 5 MFI
- SPAN-12, Mean Fluorescence Intensity [5, 8]: 11 ± 3 MFI
- SPAN-12, Mean Fluorescence Intensity [5, 9]: 10 ± 6 MFI
- SPAN-12, Mean Fluorescence Intensity ([5]; E5555 100 ng/ml, Volunteers): 17 ± 4 MFI
